We go through 36 compounds from patent US9616053B2, “Indolin-2-one or pyrrolo-pyridin/pyrimidin-2-one derivatives” (Hoffmann-La Roche Inc., priority 2013, dated 2017).

Usually inhibition stands for the relative decrease from the control value, in per cent.

Structures can show the parent of a compound that is named as a salt.

For the first assay, the system named is L-687,414-induced hyperlocomotion. Put plainly: L-687,414-induced hyperlocomotion (Digiscan locomotor activity). The assay is classed as in vivo, mouse. To be noted: Mus musculus; dose ip 20 mg/kg, at the same time as s.c. 50 mg/kg L-687,414; mice. The text has this:
The authors described that hyperlocomotion induced by L-687,414 was inhibited by a series of known antipsychotic drugs. […] These findings predict antipsychotic activity for the present compounds, making them useful for the treatment of positive (psychosis) and negative symptoms of schizophrenia, substance abuse, alcohol and drug addiction, obsessive-compulsive disorders, cognitive impairment, bipolar disorders, mood disorders, major depression, resistant depression, anxiety disorders, Alzheimer's disease, autism, Parkinson's disease, chronic pain, borderline personality disorder, sleep disturbances, chronic fatigue syndrome, stiffness, antiinflammatory effects in arthritis and balance problems.
The described compounds of formula I reduce L-687,414-induced hyperlocomotion. This was assessed by using a computerized Digiscan 16 Animal Activity Monitoring System (Omnitech Electronics, Columbus, Ohio) to quantify locomotor activity. Animals were kept under a 12 h light/dark cycle and experiments were performed during the light period. Each activity monitoring chamber consisted of a Plexiglas box (41×41×28 cm; W×L×H) with sawdust bedding on the floor surrounded by invisible horizontal and vertical infrared sensor beams. The test boxes were divided by a Plexiglas cross providing each mouse with 20×20 cm of moving space. Cages were connected to a Digiscan Analyzer linked to a computer that constantly collected the beam status information. Records of photocell beam interruptions for individual animals were taken every 5 min over the duration of the experimental session and the sum of the first 6 periods was used as the final parameter. Compounds were administered either p.o. 15 min before a s.c. injection of 50 mg/kg of L-687,414, or i.p. at the same time as a s.c. injection of 50 mg/kg of L-687,414. Mice were then transferred from their home cage to the recording chambers for a 15-min habituation phase allowing free exploration of the new environment. Horizontal activity was then recorded for a 30-min time period. The % inhibition of L-687,414-induced hyperlocomotion was calculated according to the equation: ((Veh+L-687,414 horizontal activity−drug+L-687,414 horizontal activity)Veh+L-687,414 horizontal activity)×100
ID50 values, defined as doses of each compound producing 50% inhibition of L-687,414-induced hyperlocomotion, were calculated by linear regression analysis of a dose-response data using an Excel-based computer-fitting program.
As data was not presupposed to be normally distributed, groups treated with test compounds were statistically compared with the control (vehicle-treated) group using one-tailed Mann Whitney U tests. In statistics, the Mann-Whitney Utest (also called the Mann-Whitney-Wilcoxon (MWW) or Wilcoxon rank-sum test) is a non-parametric statistical hypothesis test for assessing whether one of two samples of independent observations tends to have larger values than the other. It is one of the most well-known non-parametric significance tests. […] P values given in table 1 are one-tailed since only decreases in locomotion were expected and tested for (Mann, H. B., Whitney, D. R. (1947), “On a Test of Whether one of Two Random Variables is Stochastically Larger than the Other”, Annals of Mathematical Statistics, 18 (1), 50-60).
On to `Cc1cc(-c2ncc3c(n2)N(C2CC2)C(=O)C3(C)C)ccn1` [Example 114, 7-Cyclopropyl-5,5-dimethyl-2-(2-methylpyridin-4-yl)-5H-pyrrolo[2,3-d]pyrimidin-6(7H)-one], for which the inhibition at 20 mg/kg was 42%.

For the compound `CN1C(=O)C(C)(C)c2ccc(-c3ccc(C4CC4)nn3)cc21` [Example 79, 6-(6-Cyclopropylpyridazin-3-yl)-1,3,3-trimethyl-indolin-2-one], the inhibition at 20 mg/kg was determined as 62.5%.

The same assay, now with this note: Mus musculus; dose ip 30 mg/kg, at the same time as s.c. 50 mg/kg L-687,414; mice.
With `Cc1cc(-c2cc3c(cn2)C2(CC2)C(=O)N3C)ccn1` [Example 136, 1′-Methyl-6′-(2-methylpyridin-4-yl)spiro[cyclopropane-1,3′-pyrrolo[3,2-c]pyridin]-2′(1′H)-one], the inhibition at 30 mg/kg was 89.7%.

Compound `Cc1ncc(-c2ccc3c(c2)N(CCCO)C(=O)C3(C)C)cn1` [Example 56, 1-(3-Hydroxypropyl)-3,3-dimethyl-6-(2-methylpyrimidin-5-yl)indolin-2-one] registered an inhibition at 30 mg/kg of 93.9%.

Consider `CN(C)c1ncc(-c2ccc3c(c2)N(C)C(=O)C3(C)C)cn1` [Example 11, 6-(2-(Dimethylamino)pyrimidin-5-yl)-1,3,3-trimethylindolin-2-one], for which the inhibition at 30 mg/kg amounted to 72.2%.

Take `Cc1ncc(-c2ccc3c(c2)N(CCF)C(=O)C3(C)C)cn1` [Example 132, 1-(2-Fluoroethyl)-3,3-dimethyl-6-(2-methylpyrimidin-5-yl)indolin-2-one]: at 30 mg/kg the inhibition was 95.3%.

In the case of `O=C1N(C2CC2)c2cc(-c3cccnc3)ncc2C12CC2` [Example 140, 1′-Cyclopropyl-6′-(pyridin-3-yl)spiro[cyclopropane-1,3′-pyrrolo[3,2-c]pyridin]-2′(1′H)-one], testing at 30 mg/kg gave an inhibition of 69.3%.

`Cc1cc(-c2cc3c(cn2)C(C)(C)C(=O)N3C)ccn1` [Example 83, 1,3,3-Trimethyl-6-(2-methyl-4-pyridyl)pyrrolo[3,2-c]pyridin-2-one] returned an inhibition at 30 mg/kg of 53%.

`Cc1ncc(-c2cc3c(cn2)C(C)(C)C(=O)N3)cn1` [Example 92, 3,3-Dimethyl-6-(2-methylpyrimidin-5-yl)-1H-pyrrolo[3,2-c]pyridin-2-one] yielded an inhibition at 30 mg/kg of 80.9%.

For `CN1C(=O)C(C)(C)c2ccc(-c3ccncc3)c(F)c21` [Example 39, 7-Fluoro-1,3,3-trimethyl-6-pyridin-4-yl-1,3-dihydro-indol-2-one], the inhibition at 30 mg/kg was 77.6%.

In turn, `Cc1ncc(-c2ccc3c(c2)N(C)C(=O)C3(C)C)[nH]1` [Example 67, 1,3,3-Trimethyl-6-(2-methyl-1H-imidazol-5-yl)indolin-2-one] registered an inhibition at 30 mg/kg of 42.6%.

As for `COCC(CN1C(=O)C(C)(C)c2ccc(-c3cnc(C)nc3)cc21)OC` (stereo not drawn) [Example 175, 1-(2,3-dimethoxypropyl)-3,3-dimethyl-6-(2-methylpyrimidin-5-yl)indolin-2-one], the inhibition at 30 mg/kg was 95.3%.

`Cc1nnc(-c2ccc3c(c2)N(C)C(=O)C3(C)C)s1` [Example 72, 1,3,3-Trimethyl-6-(5-methyl-1,3,4-thiadiazol-2-yl)indolin-2-one]: at 30 mg/kg the inhibition was 67.4%.

Compound `CN1C(=O)C(C)(C)c2ccc(-c3cncnc3)cc21` [Example 4, 1,3,3-Trimethyl-6-(pyrimidin-5-yl)indolin-2-one] came in with an inhibition at 30 mg/kg of 74.6%.

With `CC1(C)C(=O)Nc2cc(-c3ccnnc3)ccc21` [Example 17, 3,3-Dimethyl-6-(pyridazin-4-yl)indolin-2-one], the inhibition at 30 mg/kg amounted to 66.7%.

Take `CC1(C)C(=O)Nc2cc(-c3cncnc3)ccc21` [Example 8, 3,3-Dimethyl-6-(pyrimidin-5-yl)indolin-2-one]: at 30 mg/kg the inhibition was 52.5%.

In turn, `Cc1cncc(C)c1-c1ccc2c(c1)N(C)C(=O)C2(C)C` [Example 28, 6-(3,5-Dimethyl-pyridin-4-yl)-1,3,3-trimethyl-1,3-dihydro-indol-2-one formate] had an inhibition at 30 mg/kg of 68.4%.

Compound `Cc1nnc(-c2ccc3c(c2)N(C)C(=O)C3(C)C)o1` [Example 93, 1,3,3-Trimethyl-6-(5-methyl-1,3,4-oxadiazol-2-yl)indolin-2-one] displayed an inhibition at 30 mg/kg of 68.6%.

With `Cc1ncc(-c2ccc3c(c2)N(CC(O)C(F)(F)F)C(=O)C3(C)C)cn1` (stereo not drawn) [Example 130, 3,3-Dimethyl-6-(2-methylpyrimidin-5-yl)-1-(3,3,3-trifluoro-2-hydroxypropyl)indolin-2-one], at 30 mg/kg the inhibition was 89.4%.

Consider `Cc1ncc(-c2ccc3c(c2)N(C)C(=O)C3(C)C)cn1` [Example 12, 1,3,3-Trimethyl-6-(2-methylpyrimidin-5-yl)indolin-2-one], for which at 30 mg/kg the inhibition was 93.7%.

Compound `CC1(C)C(=O)Nc2cc(-n3cnc(C(O)C(F)(F)F)c3)ccc21` (stereo not drawn) [Example 168, 3,3-Dimethyl-6-[4-(2,2,2-trifluoro-1-hydroxy-ethyl)imidazol-1-yl]indolin-2-one] displayed an inhibition at 30 mg/kg of 77%.

For `Cc1ncc(-c2ccc3c(c2)N(CC2COC2)C(=O)C3(C)C)cn1` [Example 129, 3,3-Dimethyl-6-(2-methylpyrimidin-5-yl)-1-(oxetan-3-ylmethyl)indolin-2-one], the inhibition at 30 mg/kg stood at 95.5%.

In the case of `CCc1ncncc1-c1ccc2c(c1)N(C)C(=O)C2(C)C` [Example 14, 6-(4-Ethylpyrimidin-5-yl)-1,3,3-trimethylindolin-2-one], the inhibition at 30 mg/kg was found to be 66.4%.

Turning to `CC1(C)C(=O)Nc2cc(-c3cn(C4CC4)cn3)ccc21` [Example 113, 6-(1-Cyclopropyl-1H-imidazol-yl)-3,3-dimethylindolin-2-one], the inhibition at 30 mg/kg stood at 83.9%.

The compound `CC1(C)C(=O)Nc2cc(-c3cnc(N)nc3)ccc21` [Example 16, 6-(2-Aminopyrimidin-5-yl)-3,3-dimethylindolin-2-one] showed an inhibition at 30 mg/kg of 89.4%.

Take `Cc1noc(-c2ccc3c(c2)N(C)C(=O)C3(C)C)n1` [Example 59, 1,3,3-Trimethyl-6-(3-methyl-1,2,4-oxadiazol-5-yl)indolin-2-one]: 30 mg/kg produced 45.2% inhibition.

Take `Cc1ncc(-c2ccc3c(c2)N(CCCOC2CC2)C(=O)C3(C)C)cn1` [Example 50, 1-(3-Cyclopropoxypropyl)-3,3-dimethyl-6-(2-methylpyrimidin-5-yl)indolin-2-one]: the inhibition at 30 mg/kg worked out at 86.3%.

Turning to `CN1C(=O)C(C)(C)c2ccc(-c3cn(CC(F)(F)F)cn3)cc21` [Example 134, 1,3,3-Trimethyl-6-(1-(2,2,2-trifluoroethyl)-1H-imidazol-4-yl)indolin-2-one], at 30 mg/kg the inhibition was 79.8%.

As to `Cn1cc(-c2ccc3c(c2)NC(=O)C3(C)C)cn1` [Example 87, 3,3-Dimethyl-6-(1-methyl-1H-pyrazol-4-yl)indolin-2-one], 30 mg/kg produced 82.8% inhibition.

In turn, `Cc1ncnc(C)c1-c1ccc2c(c1)N(C)C(=O)C2(C)C` [Example 31, 6-(4,6-Dimethyl-pyrimidin-5-yl)-1,3,3-trimethyl-1,3-dihydro-indol-2-one] came in with an inhibition at 30 mg/kg of 81.2%.

For `Cc1noc(-c2ccc3c(c2)NC(=O)C3(C)C)n1` [Example 60, 3,3-Dimethyl-6-(3-methyl-1,2,4-oxadiazol-5-yl)indolin-2-one], the inhibition at 30 mg/kg was determined as 24%.

The compound `CN1C(=O)C(C)(C)c2cc(F)c(-c3ccncc3)cc21` [Example 38, 5-Fluoro-1,3,3-trimethyl-6-(pyridin-4-yl)indolin-2-one] registered an inhibition at 30 mg/kg of 57.3%.

Take `Cc1ncc(-c2ccc3c(c2)N(CCS(C)(=O)=O)C(=O)C3(C)C)cn1` [Example 57]: testing at 30 mg/kg gave an inhibition of 79.9%.

Staying with this assay, now noted: dose producing 50% inhibition of L-687,414-induced hyperlocomotion; p.o. 15 min before s.c. 50 mg/kg L-687,414; mice.
`Cc1ncc(-c2ccc3c(c2)NC(=O)C3(C)C)cn1` [Example 21, 3,3-Dimethyl-6-(2-methylpyrimidin-5-yl)indolin-2-one] displayed an ID50 po of 1.62 mg/kg.

Turning to `CC1(C)C(=O)Nc2cc(-c3ccncc3)ccc21` [Example 7, 3,3-Dimethyl-6-(pyridin-4-yl)indolin-2-one], the ID50 po came to 29.2 mg/kg.

For `Cc1ncc(-c2ccc3c(c2)N(CCO)C(=O)C3(C)C)cn1` [Example 55, 1-(2-Hydroxyethyl)-3,3-dimethyl-6-(2-methylpyrimidin-5-yl)indolin-2-one], the ID50 po is on record as 0.88 mg/kg.
